Reference: patent publication US8940774B2, “Tris-Quaternary Ammonium Salts and Methods for Modulating Neuronal Nicotinic Acetylcholine Receptors” (University of Kentucky Research Foundation, priority 2005, dated 2015)
Like-named read-outs stand apart in the source and are kept apart here.

How the values were obtained:
[1] = target: T1, Rat Striatal Nicotinic Receptors (Rattus norvegicus, UniProt P09483+P12390); experiment: Inhibition of [3H]Nicotine (NIC) binding assay, rat striatal membranes; settings: % inhibition at 100 nM concentration of analog, 3 nM [3H]NIC
T1 construct: from tissue; host or cells: rat striatal membranes
T1 sequence (P09483 31-630): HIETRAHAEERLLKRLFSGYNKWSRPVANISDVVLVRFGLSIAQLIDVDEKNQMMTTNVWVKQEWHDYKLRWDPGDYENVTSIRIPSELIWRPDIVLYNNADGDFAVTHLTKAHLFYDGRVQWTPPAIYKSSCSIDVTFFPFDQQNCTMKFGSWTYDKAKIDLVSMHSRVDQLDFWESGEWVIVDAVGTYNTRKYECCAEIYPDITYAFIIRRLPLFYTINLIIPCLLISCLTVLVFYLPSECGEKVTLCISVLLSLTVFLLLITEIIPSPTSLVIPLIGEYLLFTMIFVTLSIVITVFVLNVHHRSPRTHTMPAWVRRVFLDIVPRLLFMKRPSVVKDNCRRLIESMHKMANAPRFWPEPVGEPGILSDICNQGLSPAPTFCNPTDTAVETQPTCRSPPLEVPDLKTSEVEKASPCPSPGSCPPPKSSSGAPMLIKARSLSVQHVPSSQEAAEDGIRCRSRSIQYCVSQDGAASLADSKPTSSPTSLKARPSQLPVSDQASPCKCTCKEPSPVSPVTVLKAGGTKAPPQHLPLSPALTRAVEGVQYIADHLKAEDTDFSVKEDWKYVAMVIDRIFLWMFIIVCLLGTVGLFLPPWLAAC
T1 sequence (P12390 25-500): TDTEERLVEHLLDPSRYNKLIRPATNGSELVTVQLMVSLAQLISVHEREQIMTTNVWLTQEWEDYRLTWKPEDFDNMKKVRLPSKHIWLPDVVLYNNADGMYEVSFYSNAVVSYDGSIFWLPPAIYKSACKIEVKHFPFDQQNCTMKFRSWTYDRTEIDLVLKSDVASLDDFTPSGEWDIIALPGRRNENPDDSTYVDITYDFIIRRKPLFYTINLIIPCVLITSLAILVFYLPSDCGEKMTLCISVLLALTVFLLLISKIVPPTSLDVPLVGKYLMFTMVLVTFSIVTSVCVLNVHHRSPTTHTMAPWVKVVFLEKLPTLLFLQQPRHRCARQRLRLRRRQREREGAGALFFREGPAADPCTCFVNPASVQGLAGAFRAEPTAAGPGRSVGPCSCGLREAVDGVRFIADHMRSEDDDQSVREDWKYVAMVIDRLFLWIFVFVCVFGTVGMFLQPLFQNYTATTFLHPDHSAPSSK
Method: Striata from two rats were dissected, pooled, and homogenized with a Tekmar polytron in 10 vol of ice-cold modified Krebs-HEPES buffer (20 mM HEPES, 118 mM NaCl, 4.8 mM, KCl, 2.5 mM CaCl2, 1.2 mM MgSO4, adjusted to pH 7.5). The homogenates were incubated at 37° C. for 5 minutes and centrifuged at 15,000 g for 20 minutes. The pellet was resuspended in 10 volumes of ice-cold MilliQ water, incubated for 5 minutes at 37° C., and centrifuged at 15,000 g for 20 minutes. The second pellet was then resuspended in 10 volumes of fresh ice-cold 10% Krebs-HEPES buffer, incubated at 37° C., and centrifuged at 15,000 g for 20 minutes. The latter sequence of resuspension, incubation and centrifugation was repeated. The pellet was frozen under fresh 10% Krebs-HEPES buffer and stored at −40° C. until assay. Upon assay, the pellet was resuspended in Krebs-HEPES buffer, incubated at 37° C. for 5 minutes, and centrifuged at 15,000 g for 20 minutes. The final pellet was resuspended in 3.6 mL ice-cold MilliQ water which provided for approximately 200 μg protein per 100 μL aliquot. Competition assays were performed in duplicate in a final volume of 200 μL Krebs-HEPES buffer containing […] Tris buffer (pH 7.5 at 4° C.). Reactions were initiated by addition of 100 μL of membrane suspension to 3 nM [^3H]NIC (50 μL) and one of at least nine concentrations of analog (50 μL). After a 90 minute incubation at 4° C., reactions were terminated by dilution of the samples with 3 mL of ice-cold Krebs-HEPES buffer followed immediately by filtration through Whatman GF/B glass fiber filters (presoaked in 0.5% polyethyleneimine) using a Brandel Cell Harvester. Filters were rinsed three times with 3 mL of ice-cold Krebs-HEPES buffer, transferred to scintillation vials, and 5 mL scintillation cocktail (Research Products international Corp., Mt. Prospect, Ill.) added. Nonspecific binding determined in triplicate was defined as binding in the presence of 10 μM NIC. Binding parameters were determined using the weighted, least squares non-linear regression. The tris-quaternary ammonium salts were evaluated for their ability to displace [^3H]NIC binding from rat striatal membranes.
(§1) Data are % inhibition at 100 nM concentration of analog for at least 1-3 independent experiments. Specific binding in the [^3H]NIC binding assay is calculated at the difference between the total binding of [^3H]NIC and nonspecific binding in the presence of 10 μM cold nicotine. Specific binding for the [^3H]MLA binding assay is calculated as the difference between the total binding of 2.5 nM [^3H]MLA to the receptors alone and its nonspecific binding in the presence of 1 μM cold MLA. Analog-induced inhibition of nicotine-evoked [^3H]DA release is calculated as a percent of that in the absence of analog.

[2] = target: T2, α7-type neuronal nicotinic acetylcholine receptors (Rattus norvegicus, UniProt Q05941); experiment: Inhibition of [3H]Methyllycaconitine (MLA) binding assay, rat brain membranes; settings: read-out: Inhibition of [3H]MLA binding
T2 construct: from tissue; host or cells: rat brain membranes (whole brain without cortex, striatum and cerebellum)
T2 sequence (Q05941 23-502): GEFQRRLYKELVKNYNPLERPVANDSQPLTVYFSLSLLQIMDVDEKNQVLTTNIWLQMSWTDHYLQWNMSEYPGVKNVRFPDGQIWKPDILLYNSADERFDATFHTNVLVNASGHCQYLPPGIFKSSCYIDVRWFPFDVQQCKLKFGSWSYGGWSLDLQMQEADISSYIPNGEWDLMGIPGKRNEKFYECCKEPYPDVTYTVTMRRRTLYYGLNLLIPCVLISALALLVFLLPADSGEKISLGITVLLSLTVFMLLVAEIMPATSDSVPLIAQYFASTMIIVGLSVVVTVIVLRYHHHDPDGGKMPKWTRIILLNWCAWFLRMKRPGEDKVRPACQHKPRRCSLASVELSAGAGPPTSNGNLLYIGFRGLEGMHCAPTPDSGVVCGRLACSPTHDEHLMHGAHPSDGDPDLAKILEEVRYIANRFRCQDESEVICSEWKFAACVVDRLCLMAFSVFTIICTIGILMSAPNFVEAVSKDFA
Method: Rat brain was dissected into the whole brain tissue without cortex, striatum and cerebellum and was frozen in liquid nitrogen and stored at −70° C. until use. The brain tissue was homogenized with a Tekmar Polytron (setting 40) in 20 volumes of ice-cold hypotonic buffer (2 mM HEPES, 14.4 mM NaCl, 0.15 mM KCl, 0.2 mM CaCl2 and 0.1 mM MgSO4, pH=7.5). The homogenate was incubated at 37° C. for 10 minutes and centrifuged at 25,000 g for 15 minutes at […] The pellet was washed 3 times more by resuspension in 20 volumes of the same buffer and centrifugation at the above parameters. The final pellet was stored at −20° C. under 4.6 mL of the incubation buffer and was suspended just before the incubation with radioligand.
The binding of [^3H]MLA to probe α7-type neuronal nicotinic acetylcholine receptors was measured using a modification of the method of Davies at al., “Characterisation of the binding of [^3H]methyllycaconitine (MLA): a radioligand for labelling α7-type neuronal nicotinic acetylcholine receptors,” Neuropharmacology, 38, 679-690 (1999). [^3H]MLA (25.4 Ci/mmol) was purchased from Tocris Cookson Ltd., Bristol, U.K. Binding was performed in duplicate, in a final volume of 250 μL of the incubation medium, containing 20 mM HEPES, 144 mM NaCl, 1.5 mM KCl, 2 mM CaCl2, 1 mM MgSO4 and 0.05% BSA, pH=7.5. Reaction was initiated by the addition of 100 μL of membrane suspension to the samples containing a desired concentration of test compounds and […] [^3H]MLA (final concentration) and incubated for 2 hours it room temperature. Total binding was measured in the absence of unlabelled ligand, and nonspecific binding was determined by the presence of 1 μM unlabelled MLA. The binding reaction was terminated by dilution of samples with 3 mL of ice-cold incubation buffer followed by immediate filtration through glass fiber filters (S&S, grade #32, presoaked in 0.5% polyethylenimine) using a Brandel harvester system. Filters were rinsed three times with 3 mL of ice-cold buffer, transferred to scintillation vials and 4 mL of scintillation cocktail was added. Protein was measured using the Bradford dye-binding procedure with bovine serum albumin as the standard.
The tris-quaternary ammonium salts were evaluated for their ability to displace [^3H]MLA binding from rat brain membranes.
as §1

[3] = system: NIC-evoked [3H]DA release from rat striatal slices; experiment: Nicotine-evoked [3H]dopamine release assay, superfused rat striatal slices; type: cell-based; settings: 100 nM analog superfused 60 minutes prior to NIC (10 μM), percent of that in the absence of analog
Method: Rat striatal slices (500 μm thickness, 6-8 mg wet weight) were incubated for 30 minutes in Krebs buffer (118 mM NaCl, 4.7 mM KCl, 1.2 mM MgCl2, 1.0 mM NaH2PO4, 1.3 mM CaCl2, 11.1 mM glucose, 25 mM NaHCO3, 0.11 mM L-ascorbic acid and 0.004 mM disodium EDTA; pH 7.4, and saturated with 95% O2/5% CO2) in a metabolic shaker at 34° C. Slices were rinsed with 15 mL of fresh buffer and incubated for an additional 30 minutes in fresh buffer containing 0.1 μM [^3H]dopamine (DA; 6 slices/3 mL). Subsequently, slices were rinsed with 15 mL of fresh buffer and transferred to a glass superfusion chamber. Slices were superfused (1.0 mL/min) for 60 minutes with Krebs buffer containing nomifensine (10 μM) and pargyline (10 μM) and maintained at 34° C., pH 7.4 with continual aeration (95% O2/5% CO2). Two five minute samples (5 mL each) were collected to determine basal outflow of [^3H]DA. Analogs were added to the superfusion buffer after the collection of the second sample and remained in the buffer until 12 consecutive five minute samples were collected. Subsequently, S-(−)-nicotine (10 μM) was added to the buffer and an additional 12 consecutive five minute samples were collected. At the end of the experiment, each slice was solubilized and the [^3H] content of the tissue determined.
Radioactivity in the superfusate and tissue samples were determined by liquid scintillation spectroscopy. Fractional release for tritium collected in each sample was divided by the total tritium present at the time of sample collection and was expressed as a percentage of total tritium. Basal [^3H] outflow was calculated from the average of the tritium collected in the two five-minute samples just before addition of the analog. The sum of the increase in collected tritium resulting from either exposure to the test compound or exposure to S-(−)-nicotine in the absence cod presence of the test compound equaled total [^3H] overflow. [^3H] Overflow was calculated by subtracting the [^3H] outflow during an equivalent period of prestimulation from the values in samples collected during and after drug exposure. Inasmuch as the radiolabelled compounds were not separated and identified, the tritium in the superfusate is referred to as either [^3H] outflow or [^3H] overflow, rather than [^3H]DA. [^3H] Overflow primarily represents [^3H]DA in the presence of nomifesine and pargyline in the superfusion buffer. […]
Analogs were also evaluated for their ability to inhibit NIC evoked [^3H]DA release. In these experiments, the striatal slices were superfused for 60 minutes with 100 nM concentration of the analogs prior to NIC (10 μM) exposure. Antagonist activity was evaluated by comparing the NIC-evoked [^3H] overflow in the absence and presence of the analogs. The relative order of potency of the analogs for inhibition of NIC-evoked [^3H]DA release from rat striatal slices is illustrated in Table 1.
as §1

[4] = % inhibition at 100 nM concentration of analog, rat brain membranes, 2.5 nM [3H]MLA

Row | Structure (SMILES) | inhibition at 0.1 µM [1] [%] | inhibition at 0.1 µM [2, 4] [%] | inhibition at 0.1 µM [3] [%] | inhibition at 0.1 µM [2] [%]
1 | c1ccc2c[n+](CCCCCc3cc(CCCCC[n+]4ccc5ccccc5c4)cc(CCCCC[n+]4ccc5ccccc5c4)c3)ccc2c1 [GZ556B, 1,3,5-tris-[5-(2-isoquinolinium)-pentyl]-benzene tribromide] | 8.4 ± 7.6 | 2.5 ± 1.5 | 28 ± 11 | 
2 | c1ccc(-c2ccc[n+](CCCCCc3cc(CCCCC[n+]4cccc(-c5ccccc5)c4)cc(CCCCC[n+]4cccc(-c5ccccc5)c4)c3)c2)cc1 [GZ558A, 1,3,5-tris-[5-(3-phenyl-pyridinium)-pentyl]-benzene tribromide] | 14 ± 5.8 | 19 ± 1.7 | 6 ± 5 | 
3 | Cc1cccc[n+]1CCCC#Cc1cc(C#CCCC[n+]2ccccc2C)cc(C#CCCC[n+]2ccccc2C)c1 [GZ554A, 1,3,5-tris-[5-(2-picolinium)-pent-1-ynyl]-benzene tribromide] | 4.5 ± 2 | 0 | 68 | 
4 | c1ccc2c(c1)ccc[n+]2CCCCCc1cc(CCCCC[n+]2cccc3ccccc32)cc(CCCCC[n+]2cccc3ccccc32)c1 [GZ556A, 1,3,5-tris-[5-(1-quinolinium)-pentyl]-benzene tribromide] | 5.7 ± 5.7 |  | 8 ± 6.4 | 6.8 ± 0.9
